US20090022915A1, “PARTICLE AND PREPARATION CONTAINING THE PARTICLE” (ONO PHARMACEUTICAL CO., LTD.,, priority 2005, published 2009)

Legend:
[1] = Absorption test, pulmonary administration (2 mg/kg) of suspension; type: in vivo, rhesus monkeys
Method: 1. Pulmonary Administration (2 mg/kg)
Each of three male rhesus monkeys (mean body weight: 3.35 kg, age: 5) was anesthetized with ketamine and, after inserting a bronchial catheter and inserting an administration tube inside the catheter, the suspension produced in Preparation Example 1 was administered into the lung in a dose of 2 mg/kg. Before and after administration (0.25, 0.5, 1, 2, 3, 4, 6, and 8 hours), blood was collected from the cubital cutaneous vein and the obtained blood was centrifugally separated to obtain blood plasma, and then the concentration of the compound 1 was measured.
(§1) 5. Intravenous Administration (0.4 mg/kg)
(§2) The preparation produced in Comparative Example 3 was intravenously administered to each of three male cynomolgus monkeys (mean body weight: 4 kg, age: 5 to 6) in the concentration of 0.4 mg/kg. After administration, blood was collected from the cubital cutaneous vein and the obtained blood was centrifugally separated to obtain blood plasma, and then the concentration of the compound 1 was measured.
(§3) Also, a bioavailability (BA (%)) was calculated from the obtained results.
(§4) BA denotes a numerical value represented by “(AUC of pulmonary administration/dose of pulmonary administration)/(AUC of intravenous administration/dose of intravenous administration)×100” (%), and AUC denotes an area under the blood concentration time curve (ng·hr/ml).

[2] = Absorption test, pulmonary administration (0.2 mg/kg) of suspension; type: in vivo; details: cynomolgus monkey, plasma, suspension of Preparation Example 2, male cynomolgus monkeys, relative to intravenous 0.4 mg/kg, read-out: bioavailability (BA)
Method: 2. Pulmonary Administration (0.2 mg/kg)
Each of three male cynomolgus monkeys (mean body weight: 3.5 to 4.5 kg, age: 5 to 6) was anesthetized with ketamine and, after inserting a bronchial catheter and inserting an administration tube inside the catheter, the suspension produced in Preparation Example 2 was administered into the lung in a dose of 0.2 mg/kg. Before and after administration (0.25, 0.5, 1, 2, 3, 4, 8 and 12 hours), blood was collected from the cephalic vein and the obtained blood was centrifugally separated to obtain blood plasma, and then the concentration of the compound 1 was measured.
as §1, §2, §3, §4

[3] = Absorption test, oral administration (3 mg/kg) of microemulsion preparation; type: in vivo; details: rhesus monkey, plasma, preparation of Comparative Example 1, male rhesus monkeys, relative to intravenous 0.4 mg/kg, read-out: bioavailability (BA)
Method: 3. Oral Administration (3 mg/kg)
An oral administration tube was inserted through the mouth of each of three male rhesus monkeys (mean body weight: 3.5 kg, age: 3) and 5.25 mL (3 mg/kg) of the preparation produced in Comparative Example 1 was orally administrated. After administration (0.5, 1, 2, 4, and 6 hours), blood was collected from the cubital cutaneous vein and the obtained blood was centrifugally separated to obtain blood plasma, and then the concentration of the compound 1 was measured.
as §1, §2, §3, §4

[4] = Particle size measurement by laser diffraction particle size distribution analyzer; type: physicochemical; details: volume mean diameter
Method: The “mean particle size” means a particle size which represents a group of particles, when the group of particles is composed of a lot of particles each having a non-uniform size. The mean particle size includes, but is not limited to, weighting averages such as a number mean diameter, a length mean diameter, an area mean diameter, a volume mean diameter and the like, and means the volume mean diameter in the present invention.
For the measurement of the particle size, a hexane solution (20 mM) of Aerosol OT was used as a disperse medium. Particles to be measured were placed in a test tube and 1 mL of the disperse medium was added to obtain a suspension. The suspension was subjected to an ultrasonic treatment for one minute and the particle size was measured using a laser diffraction particle size distribution analyzer (SALD-2100: Shimadzu Corporation). In the case of measuring the particle size of particles in the suspension, an aqueous 0.1% Polysorbate 80 solution was used as the disperse medium in place of Aerosol OT.

Solubility in water = type: physicochemical

With `CC(C)(C)OC(=O)N1CSC[C@H]1C(=O)N[C@@H](CSCC1CCCCC1)C(=O)NC1CCN(Cc2ccccc2)CC1` [compound 1, Tert-butyl (4R)-4-{[((1R)-2-[(1-benzylpiperidin-4-yl)amino]-1-{[(cyclohexylmethyl)thio]methyl}-2-oxoethyl)amino]carbonyl}-1,3-thiazolidine-3-carboxylate] the “improvement in BA” value ([1]; pulmonary administration versus oral administration) was at least 450 times, the bioavailability ([1]; rhesus monkey, plasma, pulmonary administration 2 mg/kg, suspension of Preparation Example 1, male rhesus monkeys, relative to intravenous 0.4 mg/kg, read-out: bioavailability (BA)) was 93.4% and the bioavailability [2] was 103%. For the same compound, the bioavailability [3] was 0.2%, the “Mean particle size (μm)” value [4] was “about 120 μm” and the solubility in water (Solubility in water) was “poorly soluble in water”.
